Measurements published in paper PMC7377962 (Nature chemical biology, 2020).

Molecular target: T1, Mur23 (Streptomyces sp. NRRL 30471, UniProt F2WUD5)
T1 sequence (F2WUD5 1-388): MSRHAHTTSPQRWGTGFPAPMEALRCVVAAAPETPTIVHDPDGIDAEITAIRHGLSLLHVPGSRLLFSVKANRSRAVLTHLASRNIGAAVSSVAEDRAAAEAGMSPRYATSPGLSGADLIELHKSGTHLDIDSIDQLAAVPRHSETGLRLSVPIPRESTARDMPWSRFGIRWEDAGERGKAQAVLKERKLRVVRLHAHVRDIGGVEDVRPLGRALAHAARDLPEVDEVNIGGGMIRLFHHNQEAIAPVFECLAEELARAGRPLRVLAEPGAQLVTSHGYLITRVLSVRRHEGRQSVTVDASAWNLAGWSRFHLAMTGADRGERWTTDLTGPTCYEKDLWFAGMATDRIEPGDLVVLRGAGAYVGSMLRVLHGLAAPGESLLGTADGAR
Assay: co-purification, UV/Vis spectrum
Assay type: binding
Conditions: bound as purified

## Cc1ncc(COP(=O)(O)O)c(C=O)c1O [PLP, pyridoxal-5′-phosphate]
  co-purification, UV/Vis spectrum: Mur23 copurified with PLP as evident by the yellow color and the characteristic UV/Vis spectrum
